{"source": "patent US20180008688A1", "about": "“METHOD AND COMPOSITIONS FOR ENHANCING IMMUNOTHERAPEUTIC TREATMENT OF A CANCER” (Augusta University Research Institute, Inc., priority 2016, published 2018)", "key": {"[1]": {"system": "p53", "assay": "p53 expression in mononuclear cells of tumors after systemic nutlin-3a (FACS)", "format": "in vivo, mouse", "conditions": "FIG. 7", "description": "Antibody against the N-terminus of p53 (clone 1C12), used as in Watanabe et al., (2014) Immunity 40: 681-691, was from Cell Signaling Technology. Antibody against the C-terminus p53 (clone PAb122 (Gurney et al., (1980) J. Virol. 34: 752-763) was from Novus Biologicals. For both antibodies, staining was performed following permeablization with eBioscience fix-and-perm. Anti-phospho-p53(Ser15) (clone D4S1H) was from Cell Signaling Technology. For phospho-specific staining, cells were washed in PBS, fixed with 2% paraformaldehyde for 10 min at 37° C., pre-chilled for 1 min, then permeabilized by slow addition of ice-cold methanol to a final concentration of 90%. Cells were then incubated on ice for 30 min, washed with 1% FCS/PBS, blocked with the same solution for 10 min at room temperature, then for 1 h at room temperature and washed. Cells were acquired immediately after staining.\nVO-OHpic was given at 10 mg/kg/day i.p., in 10% DMSO/PBS. Cyclophosphamide was given at 150 mg/kg i.p×1 dose. Oxaliplatin was given at 5 mg/kg i.p×1 dose. Nutlin-3a was dissolved at 2 mg/ml in 10% DMSO in buffered saline and administered daily at 10 mg/kg/day i.p. The 10 mg/kg/day dose was at the lower end of the parenteral dosing range described for mice (Zhang et al., (2011) Drug Meta. Dispos. 39: 15-21). […]"}, "[2]": {"system": "B16F10 tumors", "assay": "Established B16F10 tumors treated with dual checkpoint blockade with or without nutlin-3a", "format": "in vivo, mouse", "description": "In vivo tumor studies: The B16F10 and E.G7 (EL4-OVA) cell lines were obtained from ATCC. B16-OVA (B16F10 transfected with full-length chicken ovalbumin) clone MO4 was according to Falo et al. ((1995) Nat. Med. 1: 649-653). B16F10 cells expressing EGFP protein (B16-GFP cells) were derived using lentiviral transfection. Tumor implantation was performed as described (Sharma et al., (2007) J. Clin. Invest. 117: 2570-2582), using 1×10^5 cells for B16F10 and 1×10^6 cells for other cell lines (large inocula were used to ensure rapid tumor engraftment and immune suppression). Tumors were implanted bilaterally in each mouse as a control for reproducible implantation technique; replicate tumor diameters in a single mouse were typically within ±15%. Tumor volume was calculated from orthogonal diameters using the formula V=L×W^2×π/6. Mice received approved euthanasia when tumors reached a size of 300 mm^2 (product of orthogonal diameters); death was never used a planned endpoint in any study.\nTumor implantation was performed as described (Sharma et al., (2007) J. Clin. Invest. 117: 2570-2582). VO-OHpic was given at 10 mg/kg/day i.p., in 10% DMSO/PBS. Cyclophosphamide was given at 150 mg/kg i.p×1 dose; and oxaliplatin at 5 mg/kg i.p×1 dose. Nutlin-3a was administered daily at 10 mg/kg/day i.p. For checkpoint blockade, mice received anti-CTLA-4 plus a cocktail of antibodies against the PD-1 pathway. […]"}, "[3]": {"system": "B16-OVA tumors", "assay": "RIP-mOVA mice with OT-I cells and B16-OVA tumors, immunotherapy with or without nutlin-3a", "format": "in vivo", "description": "It was then determined which of these opposing effects would prevail when the same antigen was both a tumor-antigen and self-antigen. RIP-mOVA mice expressing OVA as a self-antigen were implanted with B16-OVA tumors expressing OVA as a tumor antigen (Falo. Jr. et al., (1995) Nat. Med. 1: 649-653). Prior to tumor implantation, all mice received adoptive transfer of congenically-marked OT-I cells. After tumors were established, mice were treated with immunotherapy (PTEN-inhibitor plus chemotherapy), with or without nutlin-3a.\nRIP-mOVA mice bearing B16-OVA tumors were treated with a cocktail of blocking antibodies against CTLA-4 plus PD-1, PD-L1 and PD-L2, with or without concurrent nutlin-3a.\nTumor implantation was performed as described (Sharma et al., (2007) J. Clin. Invest. 117: 2570-2582). VO-OHpic was given at 10 mg/kg/day i.p., in 10% DMSO/PBS. Cyclophosphamide was given at 150 mg/kg i.p×1 dose; and oxaliplatin at 5 mg/kg i.p×1 dose. Nutlin-3a was administered daily at 10 mg/kg/day i.p. For checkpoint blockade, mice received anti-CTLA-4 plus a cocktail of antibodies against the PD-1 pathway. Vaccines and T cell adoptive transfer studies were performed as described (Sharma et al., (2015) Sci. Advances. 1: e1500845).\nThe immune-activating effect of p53 is context-specific for the tumor milieu: The immunogenic effect of nutlin-3a seemed paradoxical because in most settings p53 is thought to be immunosuppressive (Munoz-Fontela et al., (2016) Nat. Rev. lmmunol. 16: 741-750; Thomasova et al., (2012) Neoplasia 14: 1097-1101). It was considered that p53 actually plays two roles in the immune system: a self-tolerance role in normal tissues during physiologic cell death (Yoon et al., (2015) Science 349: 1261669); but a pro-inflammatory role in certain specialized contexts such as immune-surveillance of tumors (Munoz-Fontela et al., (2016) Nat. Rev. lmmunol. 16: 741-750). To test this, a model in which OVA-expressing tumors were implanted in RIP-mOVA mice (which constitutively express OVA in pancreatic islet cells) was used. OVA thus became both a normal tissue antigen and a tumor antigen."}, "[4]": {"system": "T cells", "assay": "Purified T cells activated with anti-CD3/CD28 with nutlin, IL-12, MG-132", "format": "cell-based, mouse", "text": "Regulation of p53 is complex, and it can be targeted by multiple pathways besides MDM2 (Chao C. C. (2015) Clin. Chim. Acta 438: 139-147). If IL-12 is rescuing T cells from nutlin, one possibility is that IL-12 might activate an alternative pathway of p53 degradation, not dependent on MDM2. To test this, purified T cells were activated (without any antigen-presenting cells or other cells) using anti-CD3/CD28 antibodies. T cells were activated in the presence or absence of nutlin with or without addition of recombinant IL-12.\nFinally, to test the hypothesis that IL-12 targeted p53 for proteolytic degradation via an alternated pathway, proteasomal function was inhibited using MG-132. T cells were activated using immobilized CD3/CD28 as above. […] CFSE proliferation tracked inversely with p53 levels. […] While MG-132 affects many intracellular pathways besides p53, these findings support the basic hypothesis that IL-12 bypasses nutlin by targeting p53 for degradation via an alternative route."}, "[5]": {"conditions": "nutlin added to checkpoint blockade"}, "[6]": {"conditions": "nutlin-3a 10 mg/kg/day added to CTX/VO-OHpic, FIG. 13"}, "[7]": {"conditions": "nutlin-3a 10 mg/kg/day added to CTX/VO-OHpic, FIG. 13, 10 mg/kg/day"}, "[8]": {"conditions": "nutlin, anti-CD3/CD28 activation"}}}
{"compound": "COc1ccc(C2=NC(c3ccc(Cl)cc3)C(c3ccc(Cl)cc3)N2C(=O)N2CCNC(=O)C2)c(OC(C)C)c1", "note": "(single isomer, unassigned; (-)) [nutlin-3a, (−)-4-(4,5-Bis(4-chlorophenyl)-2-(2-isopropoxy-4-methoxyphenyl)-4,5-dihydro-1H-imidazole-1-carbonyl)piperazin-2-one]", "values": [{"measurement": "effect on p53 in remaining tumor cells (negative for CD11c/Ly6c/Gr 1)", "setting": "[1]", "result": "little effect"}, {"measurement": "increase in p53 levels in CD11c+ cells and myeloid cells in tumors", "setting": "[1]; systemic nutlin-3a, including Ly6c+CD11c^NEG myeloid precursors", "result": "2-3 fold"}, {"measurement": "Ly6C+/CD103+ dendritic cells in tumors", "setting": "[2]; nutlin added to checkpoint blockade, after 2 weeks of treatment", "result": "maintained large numbers"}, {"measurement": "anti-tumor effect", "setting": "[2]; nutlin-3a 10 mg/kg/day i.p. added to dual checkpoint blockade, FIG. 8A", "result": "significantly enhanced and prolonged the effect of treatment"}, {"measurement": "Ly6c+CD103+ dendritic cells in the tumors", "setting": "[3]; [5]", "result": "maintained expression"}, {"measurement": "anti-tumor effect", "setting": "[3]; [5]", "result": "significantly enhancing and prolonging the anti-tumor effect"}, {"measurement": "autoimmune diabetes", "setting": "[3]; nutlin added to checkpoint blockade (CTLA-4 plus PD-1, PD-L1, PD-L2 antibodies)", "result": "protected recipient subjects from autoimmune diabetes"}, {"measurement": "p53 in OT-I T cells in pancreatic LNs", "setting": "[3]; nutlin added to immunotherapy", "result": "increase p53"}, {"measurement": "p53 in OT-I T cells in TDLNs", "setting": "[3]; nutlin added to immunotherapy, same animals", "result": "complete loss of detectable p53 expression"}, {"measurement": "anti-tumor effect", "setting": "[3]; [6]", "result": "markedly enhanced the anti-tumor response"}, {"measurement": "autoimmune diabetes", "setting": "[3]; [6]", "result": "fully protected from diabetes"}, {"measurement": "anti-tumor effect", "setting": "[3]; [7]", "result": "enhanced and prolonged"}, {"measurement": "autoimmune diabetes", "setting": "[3]; [7]", "result": "protected the mice from lethal autoimmunity"}, {"measurement": "T cell proliferation", "setting": "[4]; [8]", "result": "suppressed proliferation of T cells"}, {"measurement": "p53 levels in activated T cells", "setting": "[4]; [8]", "result": "progressively restored, and then markedly elevated"}, {"measurement": "p53 levels in activated T cells", "setting": "[4]; nutlin, anti-CD3/CD28 activation, listed as Nutlin", "result": "blocked the down-regulation of p53"}, {"measurement": "effect of nutlin on p53-deficient T cells", "setting": "[4]; p53-deficient T cells", "result": "no inhibitory effect"}]}
